Assay results published in paper PMC10254170, “Diastereoselective Synthesis of the Borylated D-Galactose Monosaccharide 3-Boronic-3-Deoxy-D-Galactose and Biological Evaluation in Glycosidase Inhibition and in Cancer for Boron Neutron Capture Therapy (BNCT)” (Molecules, 2023).
Read-outs that look alike come from different tables or passages of the source.

What was measured:
BE2-C (neuroblastoma) = assay: Cancer screening (MTT growth inhibition), BE2-C; format: cell-based; conditions: Homo sapiens, BE(2)-C, 25 µM of drug, 72 h, n = 3, mean ± SEM, read-out: Percentage (%) cell growth inhibition
Protocol: (§1) All test agents were prepared as stock solutions (20 mM) in dimethyl sulfoxide (DMSO) and stored at −20 °C. Cell lines used in the study included: HT29 (colorectal carcinoma), U87 and SJ-G2 (glioblastoma), MCF-7 (breast carcinoma), A2780 (ovarian carcinoma), H460 (lung carcinoma), A431 (skin carcinoma), Du145 (prostate carcinoma), BE2-C (neuroblastoma), MiaPaCa-2 (pancreatic carcinoma), SMA560 (spontaneous murine astrocytoma), and ADDP (Cis Res Ovarian), together with one non-tumor-derived normal breast cell line (MCF10A). All cell lines were incubated in a humidified atmosphere with 5 % CO2 at 37 °C. The cancer cell lines were maintained in Dulbecco’s modified Eagle’s medium (DMEM; Sigma, Australia) supplemented with fetal bovine serum (10%), sodium pyruvate (10 mM), penicillin (100 IUmL^−1), streptomycin (100 µg mL^−1), and L-glutamine (2 mM).
(§2) Growth inhibition was determined by plating cells in duplicate in medium (100 µL) at a density of 2500–4000 cells per well in 96-well plates. On day 0 (24 h after plating), when the cells are in logarithmic growth, medium (100 µL) with or without the test agent was added to each well. After 72 h of drug exposure, growth inhibitory effects were evaluated using the (3-(4,5-dimethyltiazol-2-yl)-2,5-diphenyltetrazolium bromide) (MTT) assay and absorbance read at 540 nm. The percentage growth inhibition was calculated at a fixed concentration of 25 µM, based on the difference between the optical density values on day 0 and those at the end of drug exposure. Each data point is the mean ± the standard error of the mean (SEM) calculated from three replicates, which were performed on separate occasions and in separate cell line passages.

yeast α-glucosidase = assay: Glycosidase inhibition, yeast α-glucosidase; format: biochemical; conditions: at 100 μM; for inhibition %: in methanol
From the text: (§3) Glycosidase modulation studies need to explore selectivity as well as potency. Our drugs and controls are therefore screened against a panel of glycosidases in methanol (Table 1) to identify the glycosidase-related disease area(s), selectivity profile, and potency of biological action for each drug. The presence of organic boron covalently bonded to the drug structure also grants a reduced toxicity profile. Following the glycosidase inhibition range recommendations, an IC50 value >250 μm denotes weak inhibition, 100–249 μm denotes moderate inhibition, 10–99 μm good inhibition, 0.1–9 μm potent inhibition, and <0.1 μm very potent inhibition. […] Our boronated D-galactose 7 represents a novel lead in glycosidase inhibition.
(§4) The glycosidases screened are the following: rice α-glucosidase, yeast α-glucosidase, Bacillus α-glucosidase, rat intestinal maltase α-glucosidase, almond β-glucosidase, bovine liver β-glucosidase, coffee beans α-galactosidase, bovine liver β-galactosidase, Jack bean α-mannosidase, snail β-mannosidase, Penicillium decumbens α-L-rhamnosidase, bovine kidney α-L-fucosidase, Eschierichia coli β-glucuronidase, bovine liver β-glucuronidase, porcine kidney trehalase, Aspergillus niger amyloglucosidase, and bovine kidney N-acetyl-β-glucosaminidase. The disease areas for each glycosidase are summarized in [1].
(§5) The enzymes α-glucosidase (from yeast), β-glucosidases (from almond and bovine liver), α-galactosidase (from coffee beans), β-galactosidase (from bovine liver), α-mannosidase (from Jack bean), β-mannosidase (from snail), α-L-rhamnosidase (from Penicillium decumbens), α-L-fucosidase (from bovine kidney), trehalase (from porcine kidney), β-glucuronidases (from E. coli and bovine liver), amyloglucosidase (from A. niger), para-nitrophenyl glycosides, and various disaccharides were purchased from Sigma-Aldrich Co.
(§6) Brush border membranes were prepared from the rat small intestine according to the method of Kessler et al. and were assayed at pH 6.8 for rat intestinal maltase using maltose. For rat intestinal maltase, porcine kidney trehalase, and A. niger amyloglucosidase activities, the reaction mixture contained 25 mM maltose and the appropriate amount of enzyme, and the incubations were performed for 10–30 min at 37 °C. The reaction was stopped by heating at 100 °C for 3 min. After centrifugation (600 g; 10 min), the resulting reaction mixture was added to the Glucose CII-test Wako (Wako Pure Chemical Ind., Osaka, Japan). The absorbance at 505 nm was measured to determine the amount of the released D-glucose. Other glycosidase activities were determined using an appropriate para-nitrophenyl glycoside as substrate at the optimum pH of each enzyme. The reaction mixture contained 2 mM of the substrate and the appropriate amount of enzyme. The reaction was stopped by the addition of 400 mM Na2CO3. The released para-nitrophenol was measured spectrometrically at 400 nm. All reactions run in methanol.

[1] = biological target: T1, bovine kidney α-L-fucosidase (Bos taurus, UniProt Q2KIM0); assay: Glycosidase inhibition, bovine kidney α-L-fucosidase; format: biochemical; conditions: at 100 μM
T1 construct: purchased Sigma-Aldrich Co; host or cells: bovine kidney
T1 sequence (Q2KIM0 23-468): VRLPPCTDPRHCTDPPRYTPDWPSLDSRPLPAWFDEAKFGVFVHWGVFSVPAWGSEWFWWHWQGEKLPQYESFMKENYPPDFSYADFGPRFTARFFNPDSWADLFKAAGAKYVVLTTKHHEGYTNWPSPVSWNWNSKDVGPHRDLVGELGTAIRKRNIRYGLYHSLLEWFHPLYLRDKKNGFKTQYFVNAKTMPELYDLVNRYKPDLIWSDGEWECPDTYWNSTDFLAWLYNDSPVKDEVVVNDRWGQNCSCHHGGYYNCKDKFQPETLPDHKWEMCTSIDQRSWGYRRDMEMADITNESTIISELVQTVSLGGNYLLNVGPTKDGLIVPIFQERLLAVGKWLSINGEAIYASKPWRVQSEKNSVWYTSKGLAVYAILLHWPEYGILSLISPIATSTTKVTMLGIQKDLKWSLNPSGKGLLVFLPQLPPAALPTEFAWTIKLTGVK
From the text: as §3, §4, §5, §6

rice α-glucosidase = rice α-glucosidase (Oryza sativa subsp. japonica, UniProt Q653V7); assay: Glycosidase inhibition, rice α-glucosidase; format: biochemical; conditions: at 100 μM
From the text: as §3, §4, §6

[2] = test system: Penicillium decumbens α-L-rhamnosidase; assay: Glycosidase inhibition, Penicillium decumbens α-L-rhamnosidase; format: biochemical; conditions: at 100 μM; for inhibition %: in methanol
From the text: as §3, §4, §5, §6

MCF-7 (breast carcinoma) = assay: Cancer screening (MTT growth inhibition), MCF-7; format: cell-based; conditions: Homo sapiens, MCF7, 25 µM of drug, 72 h, n = 3, mean ± SEM, read-out: Percentage (%) cell growth inhibition
Protocol: as §1, §2

[3] = test system: A2780 (ovarian carcinoma); assay: Cancer screening (MTT growth inhibition), A2780; format: cell-based; conditions: Homo sapiens, A2780, 25 µM of drug, 72 h, n = 3, mean ± SEM, read-out: Percentage (%) cell growth inhibition
Protocol: as §1, §2

H460 (lung carcinoma) = assay: Cancer screening (MTT growth inhibition), H460; format: cell-based; conditions: Homo sapiens, NCI-H460, 25 µM of drug, 72 h, n = 3, mean ± SEM, read-out: Percentage (%) cell growth inhibition
Protocol: as §1, §2

[4] = test system: rat intestinal maltase α-glucosidase; assay: Glycosidase inhibition, rat intestinal maltase; format: biochemical; conditions: at 100 μM; for inhibition %: in methanol
From the text: as §3, §4, §6

[5] = test system: bovine liver β-galactosidase; assay: Glycosidase inhibition, bovine liver β-galactosidase; format: biochemical; conditions: at 100 μM; for inhibition %: in methanol
From the text: as §3, §4, §5, §6

A431 (skin carcinoma) = assay: Cancer screening (MTT growth inhibition), A431; format: cell-based; conditions: Homo sapiens, A-431, 25 µM of drug, 72 h, n = 3, mean ± SEM, read-out: Percentage (%) cell growth inhibition
Protocol: as §1, §2

[6] = test system: Du145 (prostate carcinoma); assay: Cancer screening (MTT growth inhibition), Du145; format: cell-based; conditions: Homo sapiens, DU-145, 25 µM of drug, 72 h, n = 3, mean ± SEM, read-out: Percentage (%) cell growth inhibition
Protocol: as §1, §2

[7] = in methanol, read-out: inhibition %

Chain of rice α-glucosidase (Q653V7 34-885): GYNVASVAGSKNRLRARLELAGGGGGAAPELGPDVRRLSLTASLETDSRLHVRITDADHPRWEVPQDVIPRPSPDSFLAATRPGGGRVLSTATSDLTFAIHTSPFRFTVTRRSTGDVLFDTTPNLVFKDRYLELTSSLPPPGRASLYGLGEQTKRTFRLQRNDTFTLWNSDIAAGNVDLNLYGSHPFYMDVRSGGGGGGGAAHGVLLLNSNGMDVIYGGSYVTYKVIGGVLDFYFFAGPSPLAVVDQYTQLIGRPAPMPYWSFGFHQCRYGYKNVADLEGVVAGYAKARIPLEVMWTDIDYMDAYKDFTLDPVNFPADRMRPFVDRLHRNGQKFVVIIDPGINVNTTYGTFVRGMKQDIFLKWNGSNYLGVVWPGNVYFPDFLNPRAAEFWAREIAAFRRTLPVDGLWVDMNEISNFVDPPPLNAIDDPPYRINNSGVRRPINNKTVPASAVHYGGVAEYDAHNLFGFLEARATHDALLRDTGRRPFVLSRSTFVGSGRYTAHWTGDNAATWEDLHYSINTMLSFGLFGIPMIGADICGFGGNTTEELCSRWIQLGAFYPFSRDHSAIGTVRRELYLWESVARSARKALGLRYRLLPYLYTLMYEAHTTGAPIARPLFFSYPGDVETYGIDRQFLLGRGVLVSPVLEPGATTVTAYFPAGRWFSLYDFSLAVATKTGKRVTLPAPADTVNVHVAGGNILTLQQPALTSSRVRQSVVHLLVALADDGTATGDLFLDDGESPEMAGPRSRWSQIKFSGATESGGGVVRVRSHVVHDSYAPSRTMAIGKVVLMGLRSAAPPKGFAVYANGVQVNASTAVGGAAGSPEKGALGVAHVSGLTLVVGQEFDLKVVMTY

Row | SMILES | inhibition at 25 µM (BE2-C (neuroblastoma)) | NI: No inhibition (yeast α-glucosidase) | inhibition % (yeast α-glucosidase) | inhibition at 100 µM [1, 7] | inhibition at 100 µM ([1]; read-out: NI: No inhibition) | inhibition at 100 µM (rice α-glucosidase; [7]) | inhibition at 100 µM (rice α-glucosidase; read-out: NI: No inhibition) | NI: No inhibition [2] | inhibition % [2] | inhibition at 25 µM (MCF-7 (breast carcinoma)) | inhibition at 25 µM [3] | inhibition at 25 µM (H460 (lung carcinoma)) | NI: No inhibition [4] | inhibition % [4] | NI: No inhibition [5] | inhibition % [5] | inhibition at 25 µM (A431 (skin carcinoma)) | inhibition at 25 µM [6]
1 | N[C@@H](Cc1ccc(B(O)O)cc1)C(=O)O [BPA, 4-borono-L-phenylalanine] | 13 ± 10% | NI (No inhibition (less than 50% inhibition at 100 μM)) | 0% | 0% | < 50% | 0% | < 50% | NI (No inhibition (less than 50% inhibition at 100 μM)) | 0% | < 0% | 4 ± 1% | 7 ± 8% | NI (No inhibition (less than 50% inhibition at 100 μM)) | 0% | NI (No inhibition (less than 50% inhibition at 100 μM)) | 10.9% | 4 ± 6% | 19 ± 10%
2 | CC1(C)OCC(C2OC3OC(C)(C)OC3C2[B-]23OCC[NH+]2CCO3)O1 [Compound 6, 3-Deoxy-3-Boronodiethanolamine-1,2:5,6-Di-O-isopropylidene-α-D-galactofuranose] | 2 ± 5% | NI (No inhibition (less than 50% inhibition at 100 μM)) | 0% | 6.5% | < 50% | 5.9% | < 50% | NI (No inhibition (less than 50% inhibition at 100 μM)) | 0.3% | 14 ± 5% | 10 ± 5% | 9 ± 2% | NI (No inhibition (less than 50% inhibition at 100 μM)) | 3.1% | NI (No inhibition (less than 50% inhibition at 100 μM)) | 16.3% | 0% | 0%
